The source of these data is article PMC7587962, “Evaluation of Cytotoxicity and α-Glucosidase Inhibitory Activity of Amide and Polyamino-Derivatives of Lupane Triterpenoids” (Molecules, 2020).

As a reminder, the GI50 is the concentration at which growth is held to half of that of the control.

Assay [1] relates to Rat Liver ER Neutral α-Glucosidase. Put plainly: Endoplasmic reticulum α-glucosidase activity assay. The assay is classed as biochemical. From the text: Betulinic acid inhibits yeast α-glucosidase activity and interferes with N-linked glycan modifications to cell-surface intercellular adhesion molecule-1 (ICAM-1) in human lung carcinoma A549 cells in a similar manner to castanospermine, an inhibitor of endoplasmic reticulum α-glucosidases I and II [66]. […] Taken together, these considerations prompted us to evaluate a series of lupanes with amide function or polyamine chain 11, 12, 16, 18, and 22–26 for α-glucosidase inhibition. Initially, they were screened against α-glucosidase of S. cerevisiae as an accessible and high-throughput model. Confirmatory experiments were performed on isolated rough endoplasmic reticulum vesicles from rat liver, which contain neutral α-glucosidases I and II in a membrane-bound form.
Endoplasmic reticulum was isolated from hepatocytes of decapitated male Sprague-Dawley rats, which were starved overnight and sacrificed the next morning. All experiments were approved by Volgograd regional ethic committee. The whole procedure was performed at 4 °C. In brief, a fresh tissue sample from an animal was washed twice with 10 mL of PBS to remove residual blood. The tissue was placed on a paper towel in order to absorb excess liquid and blood clots, if present. It was cut further into small pieces (1.5–2 cm) and washed once more. […] Homogenate was centrifuged at 1000× g for 10 min at 4 °C. After removal of the floating lipid layer by aspiration, supernatant was separated and centrifuged at 12,000× g for 15 min. at 4 °C. The supernatant fraction, which is the post mitochondrial fraction (PMF), was used for isolation of rough endoplasmic reticulum (RER) enriched microsomes by precipitation with 8 mM CaCl2 added dropwise. The final concentration of CaCl2 was 7 mM. Resulting sample was centrifuged at 8000 g for 10 min. at 4 °C. The supernatant was discarded, and the pellet was suspended in isotonic extraction buffer (0.3 mL of buffer for each g of original tissue). The suspension was homogenized completely to afford RER enriched microsomes. In a 96-well flat transparent plate 25 µL of the isolated RER microsomes were incubated with 50 µL of test compounds in 67 mM PBS (pH 6.8) at 37 °C for 10 min. Then, p-nitrophenyl-α-D-glucopyranoside (Sigma #N1377, St. Louis, MO, USA) was added to 1 mM final concentration and increase in absorbance was recorded for 42 min at 405 nm wavelength with Infinite M200 PRO microplate reader (Tecan, Austria). Concentration of RER microsomes was adjusted to achieve an increase in optical density of ~0.2 in control samples after 30 min. of incubation. Test compounds were prepared as described above for the yeast α-glucosidase assay.

For a further assay, the system named is MOLT-4. The arrangement: method as in PMID 25405285. The conditions noted are these: standard drugs used by NCI as control; cited from earlier work.
Another assay concerns EKVX. The arrangement: method as in PMID 25405285. The conditions noted are these: standard drugs used by NCI as control; cited from earlier work.
The next assay relates to HOP-62. Also on record: method as in PMID 25405285. The conditions noted are these: standard drugs used by NCI as control; cited from earlier work.
The next assay has as its system COLO 205. The arrangement: method as in PMID 25405285. As to conditions: standard drugs used by NCI as control; cited from earlier work.
The test system of the next assay is HCC-2998. The arrangement: method as in PMID 25405285. The conditions noted are these: standard drugs used by NCI as control; cited from earlier work.
In another assay the test system is HCT-116. Also on record: method as in PMID 25405285. The conditions noted are these: standard drugs used by NCI as control; cited from earlier work.
In another assay the test system is SW-620. The arrangement: method as in PMID 25405285. The conditions noted are these: standard drugs used by NCI as control; cited from earlier work.
The next assay deals with SF-268. The arrangement: method as in PMID 25405285. The conditions noted are these: standard drugs used by NCI as control; cited from earlier work.
The subject of another assay is SNB-19. Also on record: method as in PMID 25405285. The conditions noted are these: standard drugs used by NCI as control; cited from earlier work.
In the next assay the test system is LOX IMVI. Also on record: method as in PMID 25405285. The conditions noted are these: standard drugs used by NCI as control; cited from earlier work.
The test system of a further assay is M14. The arrangement: method as in PMID 25405285. The conditions noted are these: standard drugs used by NCI as control; cited from earlier work.
The test system of the next assay is SK-MEL-2. The arrangement: method as in PMID 25405285. The conditions noted are these: standard drugs used by NCI as control; cited from earlier work.
A further assay relates to SK-MEL-5. The arrangement: method as in PMID 25405285. As to conditions: standard drugs used by NCI as control; cited from earlier work.
The subject of another assay is UACC-257. The arrangement: method as in PMID 25405285. The conditions noted are these: standard drugs used by NCI as control; cited from earlier work.
Another assay relates to UACC-62. The arrangement: method as in PMID 25405285. As to conditions: standard drugs used by NCI as control; cited from earlier work.
For another assay, the system named is OVCAR-3. Also on record: method as in PMID 25405285. As to conditions: standard drugs used by NCI as control; cited from earlier work.
The subject of another assay is OVCAR-5. The arrangement: method as in PMID 25405285. As to conditions: standard drugs used by NCI as control; cited from earlier work.
The subject of the next assay is ACHN. The arrangement: method as in PMID 25405285. As to conditions: standard drugs used by NCI as control; cited from earlier work.
A further assay has as its system MCF7. The arrangement: method as in PMID 25405285. As to conditions: standard drugs used by NCI as control; cited from earlier work.
The next assay deals with T-47D. Also on record: method as in PMID 25405285. As to conditions: standard drugs used by NCI as control; cited from earlier work.

On to `C=C(C)[C@@H]1CC[C@]2(C(=O)NCCNCCNCCN)CC[C@]3(C)[C@H](CC[C@@H]4[C@@]5(C)CCC(=O)C(C)(C)[C@@H]5CC[C@]43C)[C@@H]12` [Compound 11], for which the “Rat Liver ER Neutral α-Glucosidase Inhibition, m ± SD” value in assay [1] (10 μM) stood at 15.03 ± 8.98%; in assay [1] (100 μM), 43.60 ± 7.98 %.

For the molecule `COc1cccc2c1C(=O)c1c(O)c3c(c(O)c1C2=O)C[C@@](O)(C(=O)CO)C[C@@H]3O[C@H]1C[C@H](N)[C@H](O)[C@H](C)O1` [DRB, doxorubicin], the GI50 was 0.03 µM with MOLT-4; 0.41 µM in the assay on EKVX; 0.07 µM in the assay with HOP-62; 0.18 µM in the assay with COLO 205; 0.26 µM with HCC-2998; 0.08 µM in the assay with HCT-116. In addition, the GI50 in the assay with SW-620 is 0.09 µM; in the assay on SF-268 it was 0.1 µM; in the assay on SNB-19 it was 0.04 µM; with LOX IMVI it was 0.07 µM; in the assay on M14, 0.18 µM; in the assay with SK-MEL-2, 0.17 µM. Besides, the GI50 in the assay on SK-MEL-5 was 0.08 µM; in the assay with UACC-257, 0.14 µM; with UACC-62, 0.12 µM; with OVCAR-3 it was 0.39 µM; in the assay with OVCAR-5 it was 0.41 µM; with ACHN, 0.08 µM. For the same molecule, the GI50 in the assay with MCF7 was 0.03 µM; in the assay on T-47D, 0.06 µM.
